Reference: PubChem BioAssay AID2060332 (Molecular Pharmacology Branch, DTP, NCI, 2025)

Tested on: LG0567-F671-PDC multi-cell spheroid viability
Experiment: Anticancer human tumor LG0567-F671-PDC patient-derived lung adenocarcinoma cell line growth inhibition [IpAb]
Details: for IC50: curve of first compound; for viability, T/C: stronger effect = lower value
Excerpt: Combinatorial screen of targeted agents with ipatasertib and abemaciclib in multi-cell type tumor spheroids
A high-throughput screen of multi-cell type tumor spheroids was designed to identify active combinations of targeted small molecules and ipatasertib or abemaciclib. Complex spheroids include a stromal component modeled by human endothelial cells (HUVEC) and fibroblasts modeled by human mesenchymal stem cells (MSCs). The concentration ranges selected for each drug and investigational agent were based upon clinically achievable concentrations if the clinical Cmax of the agent was known.
Compounds. The drugs and investigational agents: ipatasertib (NSC767898), abemaciclib(NSC768073), selumetinib (NSC741078), trametinib (758246), adavosertib (NSC754352), everolimus (NSC733504), sapanisertib (NSC764658), vemurafenib (NSC761431), venetoclax (NSC766270), copanlisib (NSC809693), apelisib (NSC765974), palbociblib (NSC758247), vemurafenib (NSC761431), dabrafenib (NSC764134), ravoxertinib (NSC781343), BMS-387032 (NSC767048), sotorasib (NSC818433), talazoparib (NSC767125) and afursertib (NSC778305), were obtained from the National Cancer Institute (NCI) Developmental Therapeutics Program Chemical Repository. The FDA-approved anticancer drug set is available from the NCI Developmental Therapeutics Program. […] The stock solutions were prepared in dimethyl sulfoxide (DMSO, Sigma-Aldrich, St. Louis, MO, cat. D2650) at 800-fold the tested concentration and stored at -70 degrees C prior to their use. All drugs and investigational agents were tested over a range starting from a high concentration at or near the clinical Cmax and decreasing in half-log increments. If the clinical Cmax for an agent had not been determined, the highest concentration tested was 10 microM.
NCI60 Cell Culture. NCI60 cell lines were obtained from the NCI Developmental Therapeutics Program Tumor Repository. For each lot of cells, the Repository performed Applied Biosystems AmpFLSTR Identifiler testing with PCR amplification to confirm consistency with the published Identifier STR profile for each cell line. Cells were kept in continuous culture for no more than 20 passages. The optimal seeding densities for each of the cell lines at each time point assessed were determined prior to performing the concentration response studies. Briefly, the NCI60 human tumor lines were grown as monolayers in RPMI 1640 medium supplemented with 10% FBS and 2 mmol/L L-glutamine.
An additional 9 lines were from the NCI60 cell line panel including MDA-MB-231 breast carcinoma, MDA-MB-468 breast carcinoma, MCF7 breast carcinoma, Hs578T breast carcinoma, MALME-3M melanoma, SK-MEL-2 melanoma, SK-OV-3 ovarian carcinoma, DU-145 prostate carcinoma, PC-3 prostate carcinoma, all cell lines along with major genetic alterations are listed on Table 2. Pooled donor human umbilical vein endothelial cells (HUVEC, Lonza, cat. CC-2519) and human mesenchymal stem cells (hMSC, Lonza, cat. PT-2501) were purchased from Lonza (Walkersville, MD).
PDMR cell lines were grown in complete medium (DC medium): Dulbecco's modified Eagle's medium (DMEM)/F12 supplemented with 5% fetal bovine serum (FBS), 2 mM L-glutamine, 100 U/mL penicillin and 100 µg/ml streptomycin, 0.4 µg/ml hydrocortisone, 10 ng/ml epidermal growth factor (EGF) recombinant human protein, 24 µg/mL adenine, and 0.1 mg/mL primocin. During culture from frozen stock vials, PDMR cells were cultured in the same medium containing 10 µM Y-27632 (see Table 3). The PDCs were cultured in complete DMEM/F12 media without 10 microM Y-27632 dihydrochloride for at least two passages prior to the screen. The pooled donor HUVEC and hMSC were cultured in endothelial cell growth medium 2 (PromoCell, Heidelberg, Germany, cat. C-22011) and mesenchymal stem cell growth medium 2 (PromoCell, cat. C-28009), respectively. For all experiments, HUVEC and hMSC were used at passages </=5.
[…]

[1] = second compound 0.1 µM, first compound 0.0316 µM
[2] = second compound 0.1 µM, first compound 0.1 µM
[3] = second compound 0.1 µM, first compound 0.316 µM
[4] = second compound 0.1 µM, first compound 1 µM
[5] = second compound 0.1 µM, first compound 3.16 µM
[6] = second compound 0.1 µM, first compound 10 µM
[7] = second compound 0.316 µM, first compound 0.0316 µM
[8] = second compound 0.316 µM, first compound 0.1 µM
[9] = second compound 0.316 µM, first compound 0.316 µM
[10] = second compound 0.316 µM, first compound 1 µM
[11] = second compound 0.316 µM, first compound 3.16 µM
[12] = second compound 0.316 µM, first compound 10 µM
[13] = second compound 1 µM, first compound 0.0316 µM
[14] = second compound 1 µM, first compound 0.1 µM
[15] = second compound 1 µM, first compound 0.316 µM
[16] = second compound 1 µM, first compound 1 µM
[17] = second compound 1 µM, first compound 3.16 µM
[18] = second compound 1 µM, first compound 10 µM
[19] = second compound 3.16 µM, first compound 0.0316 µM
[20] = second compound 3.16 µM, first compound 0.1 µM
[21] = second compound 3.16 µM, first compound 0.316 µM
[22] = second compound 3.16 µM, first compound 1 µM
[23] = second compound 3.16 µM, first compound 3.16 µM
[24] = second compound 3.16 µM, first compound 10 µM
[25] = second compound 10 µM, first compound 0.0316 µM
[26] = second compound 10 µM, first compound 0.1 µM
[27] = second compound 10 µM, first compound 0.316 µM
[28] = second compound 10 µM, first compound 1 µM
[29] = second compound 10 µM, first compound 3.16 µM
[30] = second compound 10 µM, first compound 10 µM
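Also: viability read after 7 days of drug exposure.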
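For viability, T/C in this document: 100% = DMSO vehicle control luminescence.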

Row | SMILES | IC50 (second compound 0.1 µM) [µM] | IC50 (second compound 0.316 µM) [µM] | IC50 (second compound 1 µM) [µM] | IC50 (second compound 3.16 µM) [µM] | IC50 (second compound 10 µM) [µM] | viability, T/C [1] [%] | viability, T/C [2] [%] | viability, T/C [3] [%] | viability, T/C [4] [%] | viability, T/C [5] [%] | viability, T/C [6] [%] | viability, T/C [7] [%] | viability, T/C [8] [%] | viability, T/C [9] [%] | viability, T/C [13] [%] | viability, T/C [14] [%] | viability, T/C [19] [%] | viability, T/C [20] [%] | viability, T/C [25] [%] | viability, T/C [26] [%] | further results
1 | C=CCn1c(=O)c2cnc(Nc3ccc(N4CCN(C)CC4)cc3)nc2n1-c1cccc(C(C)(C)O)n1 + CC(C)NCC(C(=O)N1CCN(c2ncnc3c2C(C)CC3O)CC1)c1ccc(Cl)cc1 | 0.479 | 0.803 | 0.626 | 1.05 | 0.646 | 80.7 | 78.5 | 52.1 | 44.6 | 34.6 | 33.4 | 75 | 73.1 | 53.3 | 69.6 | 84.6 | 79.1 | 83 | 72.8 | 76 | viability, T/C [10]: 50.5%; viability, T/C [11]: 36.2%; viability, T/C [12]: 23.6%; viability, T/C [15]: 65.2%; viability, T/C [16]: 37.8%; viability, T/C [17]: 37.6%; viability, T/C [18]: 20.2%; viability, T/C [21]: 59.1%; viability, T/C [22]: 50.8%; viability, T/C [23]: 36.9%; viability, T/C [24]: 19.5%; viability, T/C [27]: 51.7%; viability, T/C [28]: 49.1%; viability, T/C [29]: 31.9%; viability, T/C [30]: 26.8%
2 | CC(C)n1nc(-c2ccc3oc(N)nc3c2)c2c(N)ncnc21 + CC(C)NCC(C(=O)N1CCN(c2ncnc3c2C(C)CC3O)CC1)c1ccc(Cl)cc1 | 0.0804 | > 0.1 | > 0.1 | 0.0271 | 0.0117 | 59.1 | 46.4 | – | – | – | – | 50.4 | 59.5 | – | 57.9 | 46.4 | 45.5 | 39.9 | 37 | 43 | viability, T/C (second compound 0.1 µM, first compound 0.000316 µM): 89%; viability, T/C (second compound 0.1 µM, first compound 0.001 µM): 99.4%; viability, T/C (second compound 0.1 µM, first compound 0.00316 µM): 76.8%; viability, T/C (second compound 0.1 µM, first compound 0.01 µM): 65.8%; viability, T/C (second compound 0.316 µM, first compound 0.000316 µM): 76%; viability, T/C (second compound 0.316 µM, first compound 0.001 µM): 76%; viability, T/C (second compound 0.316 µM, first compound 0.00316 µM): 87%; viability, T/C (second compound 0.316 µM, first compound 0.01 µM): 66.5%; viability, T/C (second compound 1 µM, first compound 0.000316 µM): 70.3%; viability, T/C (second compound 1 µM, first compound 0.001 µM): 81.3%; viability, T/C (second compound 1 µM, first compound 0.00316 µM): 76.6%; viability, T/C (second compound 1 µM, first compound 0.01 µM): 57%; viability, T/C (second compound 3.16 µM, first compound 0.000316 µM): 97.2%; viability, T/C (second compound 3.16 µM, first compound 0.001 µM): 71.7%; viability, T/C (second compound 3.16 µM, first compound 0.00316 µM): 73%; viability, T/C (second compound 3.16 µM, first compound 0.01 µM): 62.7%; viability, T/C (second compound 10 µM, first compound 0.000316 µM): 72.9%; viability, T/C (second compound 10 µM, first compound 0.001 µM): 72.2%; viability, T/C (second compound 10 µM, first compound 0.00316 µM): 63.9%; viability, T/C (second compound 10 µM, first compound 0.01 µM): 53.8%
3 | CC1(C)CCC(CN2CCN(c3ccc(C(=O)NS(=O)(=O)c4ccc(NCC5CCOCC5)c([N+](=O)[O-])c4)c(Oc4cnc5[nH]ccc5c4)c3)CC2)=C(c2ccc(Cl)cc2)C1 + CC(C)NCC(C(=O)N1CCN(c2ncnc3c2C(C)CC3O)CC1)c1ccc(Cl)cc1 | 6.9 | 5.51 | 5.38 | 5.36 | 4.76 | 78.6 | 86.3 | 93.8 | 88.6 | 93.9 | 31.9 | 50 | 91.5 | 81.6 | 63.5 | 82.9 | 71.5 | 80.1 | 77.3 | 79.5 | viability, T/C [10]: 55.8%; viability, T/C [11]: 83.8%; viability, T/C [12]: 25.9%; viability, T/C [15]: 88.4%; viability, T/C [16]: 76.2%; viability, T/C [17]: 70.4%; viability, T/C [18]: 26.1%; viability, T/C [21]: 79.9%; viability, T/C [22]: 62.2%; viability, T/C [23]: 72.7%; viability, T/C [24]: 23.6%; viability, T/C [27]: 76.2%; viability, T/C [28]: 79.9%; viability, T/C [29]: 72.8%; viability, T/C [30]: 8.73%
4 | CCCS(=O)(=O)Nc1ccc(F)c(C(=O)c2c[nH]c3ncc(-c4ccc(Cl)cc4)cc23)c1F + CC(C)NCC(C(=O)N1CCN(c2ncnc3c2C(C)CC3O)CC1)c1ccc(Cl)cc1 | > 10 | > 10 | > 10 | > 10 | > 10 | 100 | 119 | 111 | 137 | 162 | 147 | 77.1 | 90.5 | 94.5 | 77.3 | 78.6 | 88.3 | 82.5 | 88.3 | 64.1 | viability, T/C [10]: 114%; viability, T/C [11]: 127%; viability, T/C [12]: 140%; viability, T/C [15]: 88.3%; viability, T/C [16]: 115%; viability, T/C [17]: 124%; viability, T/C [18]: 82%; viability, T/C [21]: 93.8%; viability, T/C [22]: 102%; viability, T/C [23]: 82.9%; viability, T/C [24]: 77.5%; viability, T/C [27]: 77%; viability, T/C [28]: 84.9%; viability, T/C [29]: 70.3%; viability, T/C [30]: 57.7%
